{
  "source": "patent US20090137390A1",
  "about": "“Materials and methods for enhancing nitrogen fixation in plants” (priority 2004, published 2009)",
  "key": {"[1]": {"system": "Medicago sativa roots and hypocotyls", "assay": "Endophytic colonization of alfalfa seedlings (CFU recovered from interior of roots and hypocotyls)", "type": "in vivo", "text": "(§1) Bacterial strains and inoculum preparation. BA3104 was constructed by sequential P22 transduction into 14028 using a P22HTint lysate grown on the SL3201 fliC::Tn10 fliB::MudJ strain kindly provided by Dr. Allison O'Brien (Schmitt et al., 2001). pHC112 was constructed by amplifying the spaS gene of 14028 (nucleotides 28 to 1327 of GenBank accession number AE008832) using Taq DNA polymerase. The spaS fragment was cloned into pCR-2.1-TOPO (Invitrogen), removed using EcoRI, and cloned into the EcoRI site of pWSK29 (Wang and Kushner 1991). pHC113 was constructed in the same way except that the sipB gene was amplified (nucleotides 18133 to 20138 of GenBank accession number AE008831). Bacterial strains were cultured and inoculum prepared as described previously (Dong et al., 2003a; Dong et al., 2003b) with the exception of the experiments designed to estimate the number of infection events. For these experiments the inoculum strains were composed of a mixture of either 14028 or Kp342 with and without a constitutively expressed GFP gene.\n(§2) Seed surface sterilization, germination, inoculation, plant culture and harvest. The manipulation of plants, from seed surface sterilization to plant harvest, were carried out by methods developed previously (Dong et al., 2003a; Dong et al., 2003b).\n(§3) Determination of microbial population within surface sterilized plant tissue. With the exception of the M. truncatula sickle experiment, where the whole plant tissue was used to determine microbial populations, only the root and hypocotyl were examined for bacterial colonization. The procedures used for surface sterilization, determination of endophytic microbial populations and statistical analysis were done as described previously (Dong et al., 2003a; Dong et al., 2003b).\n(§4) Assurance of endophytic colonization results. To ensure the endophytic colonization numbers presented reflect only the number of cells within the interior of plant tissue, previously developed methods were followed (Dong et al., 2003a; Dong et al., 2003b).\nInduction of ethylene response in seedlings. […]"}, "[2]": {"system": "Medicago truncatula roots and hypocotyls", "assay": "Endophytic colonization of Medicago truncatula seedlings (CFU recovered from interior)", "type": "in vivo", "text": "as §1, §2, §3, §4\nInduction of ethylene response in seedlings. To induce ethylene responses, seedlings were cultured in growth medium as described previously (Dong et al., 2003a) supplemented with 5 μM 1-aminocyclopropane-1-carboxylic acid (ACC). ACC was dissolved in water and filter sterilized prior to its addition to autoclaved plant growth media. In most experiments, seedlings were exposed to media containing ACC for 12 hours prior to inoculation.\nPreparation and use of 1-methylcyclopropene (1-MCP). The gaseous ethylene action inhibitor, 1-MCP, was prepared and stored as described by Hall et al. (2000). 1-MCP was generated from ETHYLBLOC, which was provided by A. B. Bleecker (University of Wisconsin—Madison). The concentration of 1-MCP in ETHYLBLOC is of 0.14%. A stock of 1-MCP of 100 ppm was created in a serum bottle of 121.5 ml in volume. This was accomplished by adding 19.44 mg of ETHYLBLOC and 0.5 ml of hot H2O to the serum bottle and set to rest for 15 minutes. The stock was used to dispense 0.3 ml of headspace gas to 30 ml stopped test tubes where the plants were cultured, resulting in a final concentration of 1 ppm per tube. The plant cultures were placed under conditions as described previously (Dong et al., 2003a; Dong et al., 2003b) with the exception of a rubber stopper used to conceal 1-MCP. The stoppers were removed daily, flushed with air, stopped again and finally freshly prepared 1-MCP was added to the desired final concentration."}, "Triticum aestivum roots": {"system": "Triticum aestivum roots", "assay": "Endophytic colonization of wheat seedlings (CFU recovered from interior of roots and hypocotyls)", "type": "in vivo", "settings": "varying amounts of ACC", "text": "as §1, §2\nDetermination of microbial population within surface sterilized plant tissue. […]"}, "PR1::GUS": {"system": "PR1::GUS", "assay": "GUS histochemical staining and GUS fluorogenic assay in PR1::GUS plants", "type": "in vivo, Arabidopsis thaliana", "settings": "histochemical staining and fluorogenic assays", "procedure": "GUS histochemical staining and GUS fluorogenic assay. Roots of transgenic Arabidopsis thaliana Col-0 harboring a pathogenesis-related 1 (PR1) gene promoter fused to the bacterial uidA (β-glucuronidase) reporter gene (PR1::GUS) were inoculated with 10^7 CFU S. enterica 14028, the 14028 sipB mutant, and the complemented sipB mutant,. Exogenous application of salicylic acid (5 mM) and infiltration of leaves with 10^7 CFU of an avirulent strain of P. syringae DC3000 carrying the avrRpt2 on plasmid PV288 were used as positive controls (Kunkel et al., 1993; Ton et al., 2002). The histochemical assay was performed as described by Sundaresan et al. (1995) with slight modifications (Sundaresan et al., 1995). Plants were immersed in staining buffer (50 mM sodium phosphate pH7, 10 mM EDTA, 0.1% Triton X-100, 100 μg/ml chloramphenicol, 5 mM potassium ferricyanide and 0.5 mg/ml 5-bromo-4-chloro-3-indolyl-β-D-glucuronide (X-Glc). Plants were then vacuum infiltrated, incubated overnight at 37° C., and destained with 70% ethanol.\nTo conduct the quantitative GUS fluorogenic assay, whole plants were flash-frozen in liquid N2 and crushed. The fluorogenic assay and protein extraction were done as described by (Jefferson et al, 1987). Protein concentration of the samples was determined using a BCA protein assay kit (PIERCE, Rockford, Ill.)."}},
  "note": "Entries after “also recorded” stand apart in the source; their conditions may differ.",
  "data": [
    {"smiles": "CC1=CC1", "note": "[1-MCP, 1-methylcyclopropene]", "values": [
      {"measurement": "Effect on the ACC-induced reduction in endophytic colonization of alfalfa", "setting": "[1]; 1 ppm 1-MCP, 5 μM ACC", "result": "reversed the reduction in endophytic colonization of alfalfa observed with ACC"},
      {"measurement": "Endophytic colonization upon treatment", "setting": "[2]; 1 ppm 1-MCP, regardless of presence or absence of exogenous ACC, Kp342", "result": "significantly higher endophytic colonization"}
    ]},
    {"smiles": "NC1(C(=O)O)CC1", "note": "[ACC, 1-aminocyclopropane-1-carboxylic acid]", "values": [
      {"measurement": "Reduction of endophytic colonization", "setting": "[1]; colonization by S. typhimurium 14028, wild-type M. sativa, ACC in growth media (5 μM)", "result": "four"},
      {"measurement": "Decrease of endophytic colonization", "setting": "[1]; wild-type strain (14028), FIG. 6", "result": "over two orders of magnitude"},
      {"measurement": "Decline in number of cells within wheat roots", "setting": "Triticum aestivum roots; 14028 cells", "result": "1.2 orders of magnitude"},
      {"measurement": "Decline in number of cells within wheat roots", "setting": "Triticum aestivum roots; Kp342 cells", "result": "1.85 orders of magnitude"},
      {"measurement": "Number of Kp342 cells within roots over time with ACC treatment", "setting": "[2]; 5 μM ACC at inoculation, 10^2 cells of Kp342 per plant, days 0-6", "result": "statistically different from the controls on days 4, 5, and 6; also recorded: does not change significantly with ACC treatment until four days after inoculation"}
    ]},
    {"smiles": "C=C", "note": "[ethylene]", "values": [
      {"measurement": "Endophytic colonization in plants exposed to C2H4 or ACC for the same time period", "setting": "[2]; 5 μM, Kp342", "result": "No difference in endophytic colonization"},
      {"measurement": "Time of application needed for maximal inhibition of endophytic colonization", "setting": "[2]; C2H4 5 μM applied from one day prior to up to 6 days after inoculation", "result": "prior to, or at the time of inoculation"},
      {"measurement": "Time after exposure at which effects on endophytic colonization become significant", "setting": "[2]; Kp342", "result": 96, "unit": "h"}
    ]},
    {"smiles": "O=C(O)c1ccccc1O", "note": "[salicylic acid]", "values": [
      {"measurement": "PR1::GUS induction / expression", "setting": "PR1::GUS", "result": "strongly induced"}
    ]}
  ]
}
